Measurements reported in ChEMBL document CHEMBL4330124, “Discovery of an Orally Available Janus Kinase 3 Selective Covalent Inhibitor” (J Med Chem, 2019).
Activity calls are given as the source filed them. The rule behind the calls is not given here.

What was measured:
Homo sapiens [1] = species on record: Homo sapiens; test: Inhibition of IL10/JAK/STAT3 signaling in human PBMC assessed as reduction in LPS-induced IL6 production at 100 nM preincubated for 2 hrs followed by LPS stimulation measured after 24 hrs by ELISA
Homo sapiens [2] = species on record: Homo sapiens; test: Inhibition of IL10/JAK/STAT3 signaling in human PBMC assessed as reduction in LPS-induced TNFalpha production at 100 nM preincubated for 2 hrs followed by LPS stimulation measured after 24 hrs by ELISA
PBMC = test: Effect on IL6-induced MCP1 production in human PBMC at 100 to 6000 nM preincubated for 2 hrs followed by IL6 stimulation measured after 24 hrs by ELISA; format: functional, cell-based
[3] = molecular target: Protein kinase C alpha type (Homo sapiens) (UniProt P17252); test: Inhibition of PKCalpha (unknown origin) at 1 uM after 60 mins by Z-LYTE assay relative to control
[4] = Clearance in ICR mouse at 5 mg/kg, po via gavage by LC/MS/MS analysis; format: ADME, organism-based; settings: in vivo
[5] = molecular target: T1, Tyrosine-protein kinase ITK/TSK (Homo sapiens) (UniProt Q08881); test: Inhibition of ITK (unknown origin) at 1 uM after 60 mins by Z-LYTE assay
T1 sequence (whole entry): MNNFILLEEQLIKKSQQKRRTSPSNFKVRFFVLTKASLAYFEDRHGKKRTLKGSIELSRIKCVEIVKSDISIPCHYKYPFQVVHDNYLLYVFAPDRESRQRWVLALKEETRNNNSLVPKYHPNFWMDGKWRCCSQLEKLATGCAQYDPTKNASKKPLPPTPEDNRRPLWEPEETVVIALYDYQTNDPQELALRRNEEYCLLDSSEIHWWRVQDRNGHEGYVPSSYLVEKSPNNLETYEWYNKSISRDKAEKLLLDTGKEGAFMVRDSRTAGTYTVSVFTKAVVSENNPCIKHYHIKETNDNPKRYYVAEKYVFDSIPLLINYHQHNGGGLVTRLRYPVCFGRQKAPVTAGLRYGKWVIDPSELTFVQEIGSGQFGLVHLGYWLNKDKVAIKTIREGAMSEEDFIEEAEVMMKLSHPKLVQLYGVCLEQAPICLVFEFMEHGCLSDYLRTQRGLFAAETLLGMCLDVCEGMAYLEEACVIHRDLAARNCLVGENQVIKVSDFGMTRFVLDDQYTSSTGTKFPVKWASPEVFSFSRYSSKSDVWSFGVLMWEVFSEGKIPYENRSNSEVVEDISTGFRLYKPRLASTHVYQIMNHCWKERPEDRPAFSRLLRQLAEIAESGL

[6] = molecular target: Epidermal growth factor receptor (Homo sapiens) (UniProt P00533); test: Inhibition of EGFR (unknown origin) at 1 uM after 60 mins by Z-LYTE assay
Epidermal growth factor receptor (Homo sapiens), sequence (P00533 whole entry): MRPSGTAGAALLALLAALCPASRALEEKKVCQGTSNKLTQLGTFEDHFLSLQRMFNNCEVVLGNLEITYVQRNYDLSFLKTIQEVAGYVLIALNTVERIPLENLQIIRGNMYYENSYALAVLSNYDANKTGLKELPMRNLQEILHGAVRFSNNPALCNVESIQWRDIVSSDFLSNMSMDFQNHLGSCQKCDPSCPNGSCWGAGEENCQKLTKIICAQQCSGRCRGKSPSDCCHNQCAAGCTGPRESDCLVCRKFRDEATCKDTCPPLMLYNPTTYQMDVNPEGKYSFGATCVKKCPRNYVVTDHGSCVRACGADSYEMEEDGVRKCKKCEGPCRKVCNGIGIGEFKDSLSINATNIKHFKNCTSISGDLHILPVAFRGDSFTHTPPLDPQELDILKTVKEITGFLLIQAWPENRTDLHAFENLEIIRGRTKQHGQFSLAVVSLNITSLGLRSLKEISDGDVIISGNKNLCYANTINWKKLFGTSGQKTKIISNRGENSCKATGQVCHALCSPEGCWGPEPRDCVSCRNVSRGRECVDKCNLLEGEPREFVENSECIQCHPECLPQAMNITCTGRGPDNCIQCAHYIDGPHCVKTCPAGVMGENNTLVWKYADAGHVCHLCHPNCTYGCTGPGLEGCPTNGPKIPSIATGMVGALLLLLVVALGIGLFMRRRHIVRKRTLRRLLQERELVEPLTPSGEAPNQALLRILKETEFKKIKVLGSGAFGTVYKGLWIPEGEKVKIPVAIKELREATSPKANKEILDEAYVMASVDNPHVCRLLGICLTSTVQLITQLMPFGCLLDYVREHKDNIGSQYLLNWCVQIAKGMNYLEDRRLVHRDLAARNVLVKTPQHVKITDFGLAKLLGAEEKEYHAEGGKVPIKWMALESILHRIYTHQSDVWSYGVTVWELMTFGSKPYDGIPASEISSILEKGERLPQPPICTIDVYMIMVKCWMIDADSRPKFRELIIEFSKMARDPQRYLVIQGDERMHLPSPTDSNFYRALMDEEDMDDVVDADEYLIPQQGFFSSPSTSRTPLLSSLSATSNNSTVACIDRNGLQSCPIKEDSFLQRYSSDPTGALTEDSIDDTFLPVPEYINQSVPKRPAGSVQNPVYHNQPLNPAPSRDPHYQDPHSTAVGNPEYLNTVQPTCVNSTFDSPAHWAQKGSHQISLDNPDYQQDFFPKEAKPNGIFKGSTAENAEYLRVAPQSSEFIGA

[7] = molecular target: Tyrosine-protein kinase BTK (Homo sapiens) (UniProt Q06187); test: Inhibition of BTK (unknown origin) at 1 uM after 60 mins by Z-LYTE assay
Tyrosine-protein kinase BTK (Homo sapiens), sequence (Q06187 whole entry): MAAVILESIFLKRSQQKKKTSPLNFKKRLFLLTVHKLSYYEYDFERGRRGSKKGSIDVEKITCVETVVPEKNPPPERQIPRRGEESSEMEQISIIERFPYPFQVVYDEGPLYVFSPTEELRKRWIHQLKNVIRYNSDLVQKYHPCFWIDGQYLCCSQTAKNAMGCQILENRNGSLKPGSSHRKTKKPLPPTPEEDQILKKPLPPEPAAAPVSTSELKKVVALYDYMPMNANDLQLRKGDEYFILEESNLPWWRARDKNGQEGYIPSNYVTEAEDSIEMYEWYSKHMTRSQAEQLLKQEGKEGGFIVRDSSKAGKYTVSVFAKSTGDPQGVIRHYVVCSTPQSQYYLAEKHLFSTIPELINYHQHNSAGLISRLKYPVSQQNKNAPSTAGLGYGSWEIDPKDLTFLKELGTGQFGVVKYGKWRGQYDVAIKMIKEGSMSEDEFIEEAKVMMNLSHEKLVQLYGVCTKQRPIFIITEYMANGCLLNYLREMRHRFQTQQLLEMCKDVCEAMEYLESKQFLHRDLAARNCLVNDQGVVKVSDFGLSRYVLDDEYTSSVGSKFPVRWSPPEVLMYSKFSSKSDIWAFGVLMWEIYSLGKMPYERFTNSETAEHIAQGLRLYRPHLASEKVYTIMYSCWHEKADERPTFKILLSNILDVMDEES

[8] = molecular target: Glycogen synthase kinase-3 beta (Homo sapiens) (UniProt P49841); test: Inhibition of GSK3beta (unknown origin) at 1 uM after 60 mins by Z-LYTE assay relative to control
Glycogen synthase kinase-3 beta (Homo sapiens), sequence (P49841 whole entry, looked up): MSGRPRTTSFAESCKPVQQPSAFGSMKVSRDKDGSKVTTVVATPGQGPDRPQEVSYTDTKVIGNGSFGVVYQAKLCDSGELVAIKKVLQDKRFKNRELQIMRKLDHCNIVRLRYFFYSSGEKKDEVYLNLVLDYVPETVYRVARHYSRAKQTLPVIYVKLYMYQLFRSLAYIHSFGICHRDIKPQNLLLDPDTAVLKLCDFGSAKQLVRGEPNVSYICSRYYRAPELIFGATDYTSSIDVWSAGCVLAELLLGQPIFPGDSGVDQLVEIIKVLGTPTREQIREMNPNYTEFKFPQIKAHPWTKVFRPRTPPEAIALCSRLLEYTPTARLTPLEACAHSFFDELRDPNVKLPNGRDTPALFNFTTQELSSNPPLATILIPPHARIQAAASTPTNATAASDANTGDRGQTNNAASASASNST

[9] = molecular target: Protein kinase C gamma type (Homo sapiens) (UniProt P05129); test: Inhibition of PKCgamma (unknown origin) at 1 uM after 60 mins by Z-LYTE assay relative to control

Compound | inhibition (Homo sapiens [1]) | inhibition (Homo sapiens [2]) | Activity (PBMC) | inhibition [3] | CL/F [4] | inhibition [5] | inhibition [6] | inhibition [7] | inhibition [8] | inhibition [9]
C=CC(=O)N1C[C@H](Nc2ncnc3[nH]ccc23)CC[C@@H]1C | Active | Active | inactive | – | – | – | – | – | – | –
C=CC(=O)N1CCN(c2ccc([N+](=O)[O-])c(C3=C(c4c[nH]c5ccccc45)C(=O)NC3=O)c2)CC1 | Active | Active | inactive | > 80% | 138 mL/min/kg | Active | Active | Active | > 80% | > 80%
CC(C)(O)C(=O)N1CCN(c2ccc(C(F)(F)F)c(C3=C(c4c[nH]c5ccccc45)C(=O)NC3=O)c2)CC1 | Active | Active | inactive | – | – | – | – | – | – | –
